Results from US9067937B2 (priority 2012, dated 2015).
Where a name gives a salt, the structure may show the parent alone.

Legend:
22Rv1 cells = test: Cell-based assay, anti-proliferative activity (Cell Counting Kit-8, 72 hours); design: species or system human; details: Homo sapiens, 22Rv1, 72 h, read-out: IC50 (μM) (22Rvl)
In short: (§1)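 Cells seeded at 2,000–3,000 cells/well and exposed to candidate MELK inhibitors for 72 hours; growth measured with Cell Counting Kit-8. IC50 values calculated from the growth read-out.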

A549 cells = test: as above; design: species or system human; details: Homo sapiens, A549, 72 h, read-out: IC50 (μM) (A549)
In short: as §1

T47D cells = test: as above; design: species or system human; details: Homo sapiens, T47D, 72 h, read-out: IC50 (μM) (T47D)
In short: as §1

DU4475 cells = test: as above; design: species or system human; details: Homo sapiens, DU-4475, 72 h, read-out: IC50 (μM) (DU4475)
In short: as §1

MELK = MELK (Homo sapiens, UniProt Q14680); test: Kinase assay (IMAP fluorescence polarization, FITC-labeled histone H3 peptide); format: biochemical; details: 50 micro-M ATP
Sequence of MELK (Q14680 whole entry, looked up): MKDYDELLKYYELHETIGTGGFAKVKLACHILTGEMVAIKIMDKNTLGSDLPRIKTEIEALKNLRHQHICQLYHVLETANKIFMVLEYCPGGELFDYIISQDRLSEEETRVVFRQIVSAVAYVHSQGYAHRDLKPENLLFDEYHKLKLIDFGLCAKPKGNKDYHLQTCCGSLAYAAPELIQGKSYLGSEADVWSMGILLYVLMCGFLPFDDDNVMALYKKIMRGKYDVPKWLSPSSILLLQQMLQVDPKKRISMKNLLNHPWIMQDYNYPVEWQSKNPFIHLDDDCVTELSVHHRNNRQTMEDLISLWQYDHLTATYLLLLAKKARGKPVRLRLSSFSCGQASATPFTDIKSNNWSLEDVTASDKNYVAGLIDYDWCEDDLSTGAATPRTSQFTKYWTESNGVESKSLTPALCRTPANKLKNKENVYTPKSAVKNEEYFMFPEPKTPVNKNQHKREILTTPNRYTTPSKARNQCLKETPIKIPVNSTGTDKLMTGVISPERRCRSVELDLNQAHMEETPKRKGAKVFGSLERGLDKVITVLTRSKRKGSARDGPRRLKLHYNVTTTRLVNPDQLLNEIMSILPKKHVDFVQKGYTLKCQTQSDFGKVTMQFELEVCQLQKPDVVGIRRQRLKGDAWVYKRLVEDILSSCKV
In short: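 Kinase (0.8 ng/μL) reacted with 100 nM FITC-histone H3 peptide and 50 μM ATP in 20 mM HEPES, 0.3 mM MgCl2, 2 mM DTT, 0.01% Tween-20, pH 7.4, for 1 hour at room temperature. Phosphorylation read by IMAP fluorescence polarization after adding binding solution; IC50 from four-parameter fit.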

HT1197 cells = test: Cell-based assay, anti-proliferative activity, MELK-negative control (Cell Counting Kit-8, 72 hours); design: species or system human; details: Homo sapiens, HT1197, 72 h, read-out: IC50 (μM) (HTll97)
Description: 100 micro-L of cell suspension was seeded onto 96-well microtiter plate (ViewPlate-96FTC, PerkinElmer). The initial cell concentration of 22Rv1, T47D, A549, DU4475, and HT1197 were 3,000 cells/well, 2,000 cells/well and 2,500 cells/well, respectively. Cellular growth was determined using Cell Counting Kit-8 (DOJINDO) at 72 hours after the exposure of the candidate inhibitors. […] Accurate IC50 values were calculated as described previously.

| Structure (SMILES) | IC50 (22Rv1 cells) | IC50 (A549 cells) | IC50 (T47D cells) | IC50 (DU4475 cells) | IC50 (MELK) | IC50 (HT1197 cells) |
| --- | --- | --- | --- | --- | --- | --- |
| CC(=O)c1cnc2ccc(-c3cc(Cl)c(O)c(Cl)c3)nc2c1Nc1ccc(N2CCC[C@H](N)C2)nc1 [Example 71, (S)-1-(4-{[6-(3-Aminopiperidin-1-yl)pyridin-3-yl]amino}-6-(3,5-dichloro-4-hydroxyphenyl)-1,5-naphthyridin-3-yl)ethanone trihydrochloride] | 0.014 µM | 0.09 µM | 0.0074 µM | 0.008 µM | 0.0005 µM | 3.4 µM |
| CC(=O)c1cnc2ccc(-c3cc(F)c(O)c(Cl)c3)nc2c1Nc1ccc(N2CCC[C@H](N)C2)nc1 [Example 72, (S)-1-(4-{[6-(3-Aminopiperidin-1-yl)pyridin-3-yl]amino}-6-(3-chloro-5-fluoro-4-hydroxy-phenyl)-1,5-naphthyridin-3-yl)ethanone trihydrochloride] | 0.014 µM | 0.047 µM | 0.0053 µM | 0.014 µM | 0.0043 µM | 1.2 µM |
| CC(=O)c1cnc2ccc(-c3cc(Cl)c(O)c(Cl)c3)nc2c1N[C@H]1CC[C@H](NC(=O)C(C)N)CC1 (stereo partly drawn) [Example 73, N-{trans-4-[3-Acetyl-6-(3,5-dichloro-4-hydroxyphenyl)-1,5-naphthyridin-4-ylamino]-cyclohexyl}-2-aminopropanamide dihydrochloride] | 0.027 µM | 0.18 µM | 0.0086 µM | 0.0043 µM | 0.0075 µM | 100 µM |
| CC(=O)c1cnc2ccc(-c3cc(F)c(O)c(Cl)c3)nc2c1N[C@H]1CC[C@H](NC(=O)C(C)N)CC1 (stereo partly drawn) [Example 74, N-{4-[3-Acetyl-6-(3-chloro-5-fluoro-4-hydroxyphenyl)-1,5-naphthyridin-trans-4-ylamino]-cyclohexyl}-2-aminopropanamide dihydrochloride] | 0.025 µM | 0.13 µM | 0.0043 µM | 0.0036 µM | 0.0026 µM | 100 µM |
| CC(=O)c1cnc2ccc(-c3cc(Cl)c(O)c(Cl)c3)nc2c1N[C@H]1CC[C@H](NC(=O)[C@@H]2CCCN2)CC1 [Example 75, (S)—N-{4-[3-Acetyl-6-(3,5-dichloro-4-hydroxyphenyl)-1,5-naphthyridin-trans-4-ylamino]-cyclohexyl}pyrrolidine-2-carboxamide dihydrochloride] | 0.099 µM | 0.21 µM | 0.036 µM | 0.021 µM | 0.001 µM | 8.4 µM |
| CC(=O)c1cnc2ccc(N3CCC(O)C3)nc2c1N[C@H]1CC[C@H](CN2CCC(O)C2)CC1 (stereo partly drawn) [Example 77, 1-(6-(3-Hydroxypyrrolidin-1-yl)-4-{trans-4-[(3-hydroxypyrrolidin-1-yl)methyl]-cyclohexylamino}-1,5-naphthyridin-3-yl)ethanone] | 10 µM | 10 µM | 10 µM | 10 µM | 0.74 µM | 10 µM |
| CC(=O)c1cnc2ccc(N3CCCC3)nc2c1N[C@H]1CC[C@H](CN2CCCC2)CC1 [Example 78, 1-{6-(Pyrrolidin-1-yl)-4-[trans-4-(pyrrolidin-1-ylmethyl)cyclohexylamino]-1,5-naphthyridin-3-yl}ethanone] | 5.6 µM | 6.8 µM | 5.4 µM | 7.7 µM | 2 µM | 9.8 µM |
| CC(=O)c1cnc2ccc(-c3cc(Cl)c(O)c(Cl)c3)nc2c1N[C@H]1CC[C@H](NC(=O)C(N)C(C)C)CC1 (stereo partly drawn) [Example 79, N-{trans-4-[3-Acetyl-6-(3,5-dichloro-4-hydroxyphenyl)-1,5-naphthyridin-4-ylamino]-cyclohexyl}-2-amino-3-methylbutanamide dihydrochloride] | 0.038 µM | 0.11 µM | 0.018 µM | 0.016 µM | 0.0016 µM | 3.9 µM |
| CN(C)[C@H]1CC[C@H](Nc2c(C(=O)C3CC3)cnc3ccc(-c4cc(Cl)c(O)c(Cl)c4)nc23)CC1 [Example 80, Cyclopropyl {6-(3,5-dichloro-4-hydroxyphenyl)-4-[trans-4-(dimethylamino)-cyclohexylamino]-1,5-naphthyridin-3-yl}methanone dihydrochloride] | 0.0052 µM | 0.0076 µM | 0.0041 µM | 0.002 µM | 0.0006 µM | 0.084 µM |
| CC(=O)c1cnc2ccc(-c3cnc4[nH]ccc4c3)nc2c1N[C@H]1CC[C@H](CN(C)C)CC1 [Example 82, 1-(4-{trans-4-[(Dimethylamino)methyl]cyclohexylamino}-6-(1H-pyrrolo[2,3-b]pyridin-5-yl)-1,5-naphthyridin-3-yl)ethanone trihydrochloride] | 0.37 µM | 0.33 µM | 0.32 µM | 0.65 µM | 0.013 µM | 2.3 µM |
| N[C@H]1CCCN(c2ccc(Nc3c(C(=O)C4CC4)cnc4ccc(-c5cc(F)c(O)c(Cl)c5)nc34)cn2)C1 [Example 83, (S)-{4-[6-(3-Aminopiperidin-1-yl)pyridin-3-ylamino]-6-(3-chloro-5-fluoro-4-hydroxyphenyl)-1,5-naphthyridin-3-yl}(cyclopropyl)methanone] | 0.025 µM | 0.09 µM | 0.012 µM | 0.015 µM | 0.001 µM | 2.7 µM |
| COc1ccc(-c2ccc3ncc(C(C)=O)c(N[C@H]4CC[C@H](CN(C)C)CC4)c3n2)cc1 [Example 84, 1-(4-{trans-4-[(Dimethylamino)methyl]cyclohexylamino}-6-(4-methoxyphenyl)-1,5-naphthyridin-3-yl)ethanone dihydrochloride] | 0.58 µM | 2.4 µM | 0.25 µM | 5.2 µM | 0.031 µM | 6 µM |
| COc1c(Cl)cc(-c2ccc3ncc(C(C)=O)c(N[C@H]4CC[C@H](CN(C)C)CC4)c3n2)cc1Cl [Example 85, 1-[6-(3,5-Dichloro-4-methoxyphenyl)-4-{trans-4-[(dimethylamino)methyl]-cyclohexylamino}-1,5-naphthyridin-3-yl]ethanone dihydrochloride] | 0.77 µM | 2.3 µM | 0.43 µM | 2.3 µM | 0.12 µM | 6.5 µM |
| CC(=O)c1cnc2ccc(-c3ccc(O)nc3)nc2c1N[C@H]1CC[C@H](CN(C)C)CC1 [Example 86, 1-(4-{trans-4-[(Dimethylamino)methyl]cyclohexylamino}-6-(6-hydroxypyridin-3-yl)-1,5-naphthyridin-3-yl)ethanone dihydrochloride] | 5.3 µM | 8 µM | 6.2 µM | 6.5 µM | 0.011 µM | 10 µM |
| CC(=O)c1cnc2ccc(-c3ccc(C#N)nc3)nc2c1N[C@H]1CC[C@H](CN(C)C)CC1 [Example 87, 5-(7-Acetyl-8-{trans-4-[(dimethylamino)methyl]cyclohexylamino}-1,5-naphthyridin-2-yl)picolinonitrile dihydrochloride] | 0.66 µM | 1.8 µM | 0.66 µM | 0.74 µM | 0.0045 µM | 2 µM |
| CC(=O)c1cnc2ccc(-c3ccc(O)cc3)nc2c1N[C@H]1CC[C@H](CN(C)C)CC1 [Example 88, 1-(4-{trans-4-[(Dimethylamino)methyl]cyclohexylamino}-6-(4-hydroxyphenyl)-1,5-naphthyridin-3-yl)ethanone dihydrochloride] | 0.04 µM | 0.023 µM | 0.031 µM | 0.021 µM | 0.0045 µM | 0.039 µM |
| CC(=O)c1cnc2ccc(-c3cc(F)c(O)c(Cl)c3)nc2c1NC[C@H]1CC[C@H](N(C)C)CC1 [Example 90, 1-[6-(3-Chloro-5-fluoro-4-hydroxyphenyl)-4-{[trans-4-(dimethylamino)-cyclohexyl]methylamino}-1,5-naphthyridin-3-yl]ethanone dihydrochloride] | 0.052 µM | 0.12 µM | 0.03 µM | 0.027 µM | 0.0024 µM | 10 µM |
| CC(=O)c1cnc2ccc(-c3cc(F)c(O)c(Cl)c3)nc2c1N[C@H]1CC[C@@H](CN(C)C)CC1 [Example 93, 1-{6-(3-Chloro-5-fluoro-4-hydroxyphenyl)-4-({cis-4-[(dimethylamino)methyl]cyclohexyl}-amino)-1,5-naphthyridin-3-yl}ethanone dihydrochloride] | 0.032 µM | 0.039 µM | 0.02 µM | 0.011 µM | 0.0011 µM | 0.19 µM |
| CC(=O)c1cnc2ccc(-c3cc(Cl)c(O)c(Cl)c3)nc2c1Nc1ccc(N2CCC[C@@H](N)C2)nc1 [Example 95, (R)-1-{4-[6-(3-Aminopiperidin-1-yl)pyridin-3-ylamino]-6-(3,5-dichloro-4-hydroxyphenyl)-1,5-naphthyridin-3-yl}ethanone trihydrochloride] | 0.029 µM | 0.088 µM | 0.022 µM | 0.03 µM | 0.002 µM | 1.9 µM |
